In patent US11045457B2, “Piperidinyl-3-(aryloxy)propanamides and propanoates” (priority 2018, dated 2021):

target: SSTR4 (Homo sapiens (Human), UniProt P31391); experiment: Inhibition of forskolin stimulated cAMP in CHO-K1 cells overexpressing SSTR4; format: cell-based; settings: not given
Description: Inhibition of Forskolin Stimulated cAMP in Cells Overexpressing SSTR4
This cell-based assay measures the ability of compounds to inhibit forskolin stimulated cAMP in CHO-K1 cells overexpressing SSTR4. CHO-K1 cells overexpressing SSTR4 (CHO-SSTR4) are purchased from DiscoveRx (product code 95-0059C2). The CHO-SSTR4 cells are maintained in F12K media with 10% Fetal Bovine Serum (Hyclone), 1% Pen/Strep (Life Technologies), and 800 μg/mL G418 (Life Technologies). […] The next day, the culture media is removed from the cells and the cells are washed (added then removed) with Kreb's Ringer Buffer (ZenBio, KRB-1000 mL). […] The cells are incubated in […] for 30 minutes at room temperature. Cellular cAMP levels are detected with a HTRF LANCE Ultra cAMP kit (Perkin Elmer, catalog number TRF0264).
The assay is performed in accordance with the manufacturer's instructions. Five μL of diluted Eu-W8044 labeled streptavidin (dilution: 1:50 in cAMP Detection Buffer) is added to each well. Then 5 μL of diluted biotin cAMP (dilution: 1:150 in cAMP Detection Buffer) is added to each well. The plates are covered and allowed to incubate for 60 minutes at room temperature on a shaker. […] The pEC50 values are generated using Activity Base for Screening Data Management.

Sequence of SSTR4 (P31391 whole entry): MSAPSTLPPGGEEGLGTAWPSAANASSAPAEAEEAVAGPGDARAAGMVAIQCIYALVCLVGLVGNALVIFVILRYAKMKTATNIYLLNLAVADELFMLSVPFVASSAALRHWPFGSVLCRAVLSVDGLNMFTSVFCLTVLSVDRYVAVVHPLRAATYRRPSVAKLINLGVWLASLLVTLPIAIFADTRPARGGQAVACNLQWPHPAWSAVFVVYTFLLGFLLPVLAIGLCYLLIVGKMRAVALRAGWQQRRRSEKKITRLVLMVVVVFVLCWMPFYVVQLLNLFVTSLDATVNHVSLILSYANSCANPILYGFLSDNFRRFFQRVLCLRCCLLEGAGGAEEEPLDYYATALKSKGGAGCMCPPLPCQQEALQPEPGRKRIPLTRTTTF

| Structure (SMILES) | SSTR4 Activity pEC50 |
| --- | --- |
| CC(C)(COc1ncccc1C(F)(F)F)C(=O)NC1CNCC1(F)F (stereo not shown) [Example 131, N-(4,4-difluoropyrrolidin-3-yl)-2,2-dimethyl-3-((3-(trifluoromethyl)pyridin-2-yl)oxy)propanamide] | 6.1 |
| Cc1cccnc1OCC(C)(C)C(=O)N[C@@H]1CCN(C)C[C@H]1C [Example 142, N-((3R,4R)-1,3-dimethylpiperidin-4-yl)-2,2-dimethyl-3-((3-methylpyridin-2-yl)oxy)propanamide] | 6.1 |
| C[C@@H]1CN(C)CC[C@H]1NC(=O)C(C)(C)COc1ncccc1C(F)(F)F (single isomer, unassigned) [Example 106] | 6.0 |
| CN1CC[C@@H](NC(=O)C(C)(C)COc2ncccc2C(F)(F)F)[C@H](c2ccccc2)C1 (relative stereo) [Example 164, 2,2-dimethyl-N-(trans-1-methyl-3-phenylpiperidin-4-yl)-3-((3-(trifluoromethyl)pyridin-2-yl)oxy)propanamide] | 6.6 |
| CN1CCC(NC(=O)C(C)(C)COc2ncncc2C2CC2)CC1 [Example 5, 3-((5-cyclopropylpyrimidin-4-yl)oxy)-2,2-dimethyl-N-(1-methylpiperidin-4-yl)propanamide] | 6.8 |
| CN1CCC(NC(=O)C(C)(C)COc2ccc(F)cc2)CC1 [Example 204, 3-(4-fluorophenoxy)-2,2-dimethyl-N-(1-methylpiperidin-4-yl)propanamide] | 6.4 |
| CN1CCC(NC(=O)C(C)(C)COc2nccc3occc23)CC1 [Example 99, 3-(furo[3,2-c]pyridin-4-yloxy)-2,2-dimethyl-N-(1-methylpiperidin-4-yl)propanamide] | 7.1 |
| CN1CCC(NC(=O)C(C)(C)COc2ncccc2C(F)(F)F)C(F)(F)C1 (stereo not shown) [Example 118, N-(3,3-difluoro-1-methylpiperidin-4-yl)-2,2-dimethyl-3-((3-(trifluoromethyl)pyridin-2-yl)oxy)propanamide] | 6.2 |
| Cc1cnc(OCC(C)(C)C(=O)N[C@H]2CCN(C)C[C@H]2C)c(C)c1 (relative stereo) [Example 32, cis-N-(1,3-dimethylpiperidin-4-yl)-3-((3,5-dimethylpyridin-2-yl)oxy)-2,2-dimethylpropanamide] | 5.8 |
| Cc1cnc(OCC(C)(C)C(=O)NC2CCN(C)CC2)c(C(F)(F)F)c1 [Example 101, 2,2-dimethyl-3-((5-methyl-3-(trifluoromethyl)pyridin-2-yl)oxy)-N-(1-methylpiperidin-4-yl)propanamide] | 7.3 |
| Cc1cccnc1OCC(F)(F)C(=O)N[C@@H]1CCN(C)[C@H](C)C1 [Example 205, N-((2R,4R)-1,2-dimethylpiperidin-4-yl)-2,2-difluoro-3-((3-methylpyridin-2-yl)oxy)propanamide] | 6.9 |
| Cc1cnc(OCC(C)(C)C(=O)N[C@H]2CCN(C)C[C@@H]2F)c(C)c1 [Example 122, 3-((3,5-dimethylpyridin-2-yl)oxy)-N-((3S,4S)-3-fluoro-1-methylpiperidin-4-yl)-2,2-dimethylpropanamide] | 6.6 |
| CN1CCC(NC(=O)C(C)(C)COc2ncccc2Cl)CC1 [Example 38, 3-((3-chloropyridin-2-yl)oxy)-2,2-dimethyl-N-(1-methylpiperidin-4-yl)propanamide] | 7.0 |
| Cc1cccnc1OCC(C)(C)C(=O)NC1CCN(C)C1 (stereo not shown) [Example 2, 2,2-dimethyl-3-((3-methylpyridin-2-yl)oxy)-N-(1-methylpyrrolidin-3-yl)propanamide] | 6.3 |
| Cc1ccc(C)c(OCC(C)(C)C(=O)NC2CCN(C)CC2)n1 [Example 83, 3-((3,6-dimethylpyridin-2-yl)oxy)-2,2-dimethyl-N-(1-methylpiperidin-4-yl)propanamide] | 7.3 |
| CCC1CC(NC(=O)C(C)(C)COc2ncccc2C(F)(F)F)CCN1C (stereo not shown) [Example 137, N-(2-ethyl-1-methylpiperidin-4-yl)-2,2-dimethyl-3-((3-(trifluoromethyl)pyridin-2-yl)oxy)propanamide] | 6.7 |
| CCOc1cccnc1OCC(C)(C)C(=O)NC1CCN(C)CC1 [Example 54, 3-((3-ethoxypyridin-2-yl)oxy)-2,2-dimethyl-N-(1-methylpiperidin-4-yl)propanamide] | 7.0 |
| Cc1ccc(C2CC2)c(OCC(C)(C)C(=O)NC2CCN(C)CC2)n1 [Example 9, 3-((3-cyclopropyl-6-methylpyridin-2-yl)oxy)-2,2-dimethyl-N-(1-methylpiperidin-4-yl)propanamide] | 7.1 |
| CN1CCC(NC(=O)C(C)(C)COc2ccccc2F)CC1 [Example 195, 3-(2-fluorophenoxy)-2,2-dimethyl-N-(1-methylpiperidin-4-yl)propanamide] | 6.5 |
| CN1CCC(NC(=O)C(C)(C)COc2ncc(F)cc2F)CC1 [Example 40, 3-((3,5-difluoropyridin-2-yl)oxy)-2,2-dimethyl-N-(1-methylpiperidin-4-yl)propanamide] | 6.1 |
| Cc1cccnc1OCC1(C(=O)NC2CCN(C)CC2)CC1 [Example 63, N-(1-methylpiperidin-4-yl)-1-(((3-methylpyridin-2-yl)oxy)methyl)cyclopropane-1-carboxamide] | 5.8 |
| C[C@@H]1CN(C)CC[C@H]1NC(=O)C(F)(F)COc1ncccc1C(F)(F)F (relative stereo) [Example 189, trans-N-(1,3-dimethylpiperidin-4-yl)-2,2-difluoro-3-((3-(trifluoromethyl)pyridin-2-yl)oxy)propanamide] | 6.8 |
| Cc1cnc(OCC(C)(C)C(=O)NC2CCN(C)CC2)c(Cl)c1 [Example 82, 3-((3-chloro-5-methylpyridin-2-yl)oxy)-2,2-dimethyl-N-(1-methylpiperidin-4-yl)propanamide] | 7.0 |
| CN1CC[C@H](CNC(=O)C(C)(C)COc2ncccc2C(F)(F)F)C1 [Example 36, (R)-2,2-dimethyl-N-((1-methylpyrrolidin-3-yl)methyl)-3-((3-(trifluoromethyl)pyridin-2-yl)oxy)propanamide] | 6.1 |
| CN1CCC(NC(=O)C(C)(C)COc2ncccc2C(F)(F)F)C(Cl)C1 (stereo not shown) [Example 120, N-(3-chloro-1-methylpiperidin-4-yl)-2,2-dimethyl-3-((3-(trifluoromethyl)pyridin-2-yl)oxy)propanamide] | 5.9 |

same assay, conditions: read-out: SSTR4 Activity pEC50 (converted)

| Structure (SMILES) | EC50 |
| --- | --- |
| C[C@H]1C[C@H](NC(=O)C(C)(C)COc2ncccc2C(F)(F)F)CN1C (relative stereo) [Example 133, trans-N-(1,5-dimethylpyrrolidin-3-yl)-2,2-dimethyl-3-((3-(trifluoromethyl)pyridin-2-yl)oxy)propanamide] | 631 nM |
| CN1CCC(NC(=O)C(C)(C)COc2ncccc2C(F)(F)F)C12CCC2 (stereo not shown) [Example 151, 2,2-dimethyl-N-(5-methyl-5-azaspiro[3.4]octan-8-yl)-3-((3-(trifluoromethyl)pyridin-2-yl)oxy)propanamide] | 158 nM |
| CN1C[C@@H](NC(=O)C(C)(C)COc2ncccc2C(F)(F)F)[C@H](c2ccc(C(F)(F)F)nc2)C1 (relative stereo) [Example 59, trans-2,2-dimethyl-N-(1-methyl-4-(6-(trifluoromethyl)pyridin-3-yl)pyrrolidin-3-yl)-3-((3-(trifluoromethyl)pyridin-2-yl)oxy)propanamide] | 31.6 nM |
| CCO[C@@H]1CN(C)C[C@H]1NC(=O)C(C)(C)COc1ccccc1CC (relative stereo) [Example 95, trans-N-(4-ethoxy-1-methylpyrrolidin-3-yl)-3-(2-ethylphenoxy)-2,2-dimethylpropanamide] | 79.4 nM |
| CC(C)[C@@H]1CN(C)CC[C@H]1NC(=O)C(C)(C)COc1ncccc1C(F)(F)F (relative stereo) [Example 33, trans-N-(3-isopropyl-1-methylpiperidin-4-yl)-2,2-dimethyl-3-((3-(trifluoromethyl)pyridin-2-yl)oxy)propanamide] | 0.794 nM |
| CC(C)(COc1ncccc1C(F)(F)F)C(=O)O[C@@H]1CCNC[C@H]1c1ccccc1 (relative stereo) [Example 171, trans-3-phenylpiperidin-4-yl 2,2-dimethyl-3-((3-(trifluoromethyl)pyridin-2-yl)oxy)propanoate] | 316 nM |
| CC[C@H]1[C@H](NC(=O)C(C)(C)COc2ncccc2C(F)(F)F)CCN1C (relative stereo) [Example 149, trans-N-(2-ethyl-1-methylpyrrolidin-3-yl)-2,2-dimethyl-3-((3-(trifluoromethyl)pyridin-2-yl)oxy)propanamide] | 126 nM |
| C[C@H]1C[C@H](NC(=O)C(C)(C)COc2ncccc2OC(F)(F)F)CCN1C (relative stereo) [Example 135, trans-N-(1,2-dimethylpiperidin-4-yl)-2,2-dimethyl-3-((3-(trifluoromethoxy)pyridin-2-yl)oxy)propanamide] | 25.1 nM |
| C[C@@H]1C[C@H](NC(=O)C(C)(C)COc2ncccc2C(F)(F)F)CN1C (relative stereo) [Example 134, cis-N-(1,5-dimethylpyrrolidin-3-yl)-2,2-dimethyl-3-((3-(trifluoromethyl)pyridin-2-yl)oxy)propanamide] | 2000 nM |
